The record followed here is DBAASP.

Among the test systems are Cryptococcus neoformans; Bacillus cereus; Staphylococcus aureus; Candida albicans; Vibrio parahaemolyticus; Vibrio alginolyticus; Aeromonas hydrophila; Pseudomonas aeruginosa; Pseudomonas fluorescens; Bacillus subtilis; Escherichia coli; Shigella flexneri; Staphylococcus hominis; Staphylococcus aureus MR; Enterococcus faecalis A4; Candida albicans CAN105; Enterococcus faecalis; Escherichia coli UB1005.

What all share (test): ≥ marks a high value that may be exact or a test limit, other limits are often not marked, values filed in µg/mL are converted to µM
Experiment [1] relates to Staphylococcus epidermidis.
Experiment [2] has as its system Pseudomonas aeruginosa ATCC 27853.
Experiment [3] concerns Staphylococcus epidermidis ATCC 12228.
Experiment [4] concerns Pseudomonas aeruginosa R1.
For experiment [5], the system named is Staphylococcus aureus ATCC 25923.
For experiment [6], the system named is Pseudomonas aeruginosa ATCC 19660.
The test system of experiment [7] is Pseudomonas aeruginosa PAO1.
Experiment [8] has as its system Escherichia coli ATCC 25922.
The subject of experiment [9] is Acinetobacter baumannii ATCC 19606.
In experiment [10] the test system is Pseudomonas aeruginosa ME.
In experiment [11] the test system is Pseudomonas aeruginosa AA43.
Experiment [12] concerns Corynebacterium jeikeium ATCC BAA-949.
The subject of experiment [13] is Salmonella enterica subsp. enterica serovar Enteritidis BNCC 103134.
Experiment [14] has as its system Bacillus subtilis ATCC 6633.
The subject of experiment [15] is Enterococcus faecium 5F-10.
Experiment [16] deals with Salmonella enterica ATCC H9812.
Experiment [17] concerns Staphylococcus aureus ATCC 29213.
In experiment [18] the test system is Bacillus licheniformis ATCC 14580.
The subject of experiment [19] is Bacillus amyloliquefaciens ATCC 23842.
For experiment [20], the system named is Bacillus cereus ATCC 14579.
Experiment [21] deals with Enterococcus faecium 4W-9.
Experiment [22] relates to Staphylococcus aureus 215.
Experiment [23] relates to Enterococcus faecalis 1F-1.
In experiment [24] the test system is Proteus mirabilis ATCC 35659.
For experiment [25], the system named is Bacillus subtilis ATCC 6051.
Experiment [26] has as its system Staphylococcus aureus K147.
Experiment [27] has as its system Pseudomonas aeruginosa H187.
For experiment [28], the system named is Staphylococcus aureus SAP 0017.

Converted amounts (≈) assume the structure as drawn. “And” between values parts separate entries of the source, which are not always exact repeats. Identical values can stand only once.

The MIC is the smallest concentration in the dilution series that meets the test's criterion for growth inhibition. In the case of `CSCC[C@H](NC(=O)[C@H](CCCCN)NC(=O)[C@H](CCC(N)=O)NC(=O)[C@H](CCSC)NC(=O)[C@H](CC(N)=O)NC(=O)[C@H](CCCN=C(N)N)NC(=O)[C@H](CC(N)=O)NC(=O)[C@H](Cc1ccc(O)cc1)NC(=O)[C@H](CCCCN)NC(=O)[C@H](Cc1ccc(O)cc1)NC(=O)[C@H](CC(=O)O)NC(=O)[C@H](CCCCN)NC(=O)[C@H](Cc1c[nH]c2ccccc12)NC(=O)[C@H](C)NC(=O)[C@H](CCC(N)=O)NC(=O)[C@H](CCCN=C(N)N)NC(=O)[C@H](C)NC(=O)CNC(=O)[C@@H](N)CCCCN)C(=O)N[C@@H](CC(N)=O)C(=O)N[C@@H](CCC(N)=O)C(=O)NCC(=O)N[C@@H](Cc1ccc(O)cc1)C(=O)NCC(=O)N[C@@H](CCC(N)=O)C(=O)N[C@@H](CCC(N)=O)C(=O)NCC(=O)NCC(=O)O` [KGARQAWKDYKYNRNMQKMNQGYGQQGG], the MIC was 17.7 µM (≈ 58.5 µg/mL) against Cryptococcus neoformans; ≥ 50 µM in the experiment on Bacillus cereus; > 50 µM in the experiment on Staphylococcus aureus; > 50 µM against Candida albicans; ≥ 50 µM in the experiment with Vibrio parahaemolyticus; ≥ 50 µM with Vibrio alginolyticus. In addition, the MIC is ≥ 50 µM against Aeromonas hydrophila; > 50 µM with Pseudomonas aeruginosa; ≥ 50 µM in the experiment on Pseudomonas fluorescens; ≥ 35.4 µM against Bacillus subtilis; > 50 µM against Escherichia coli; ≥ 50 µM in the experiment with Shigella flexneri. The MIC in [1] is ≥ 50 µM.

As to `CC[C@H](C)[C@H](NC(=O)CN)C(=O)N[C@@H](Cc1ccccc1)C(=O)N[C@@H](CO)C(=O)N[C@@H](CCCCN)C(=O)N[C@@H](CC(C)C)C(=O)N[C@@H](C)C(=O)NCC(=O)N[C@@H](CCCCN)C(=O)N[C@@H](CCCCN)C(=O)N[C@H](C(=O)N[C@@H](CCCCN)C(=O)N[C@@H](CC(N)=O)C(=O)N[C@@H](CC(C)C)C(=O)N[C@@H](CC(C)C)C(=O)N[C@H](C(=O)N[C@@H](CO)C(=O)NCC(=O)N[C@@H](CC(C)C)C(=O)N[C@@H](CCCCN)C(=O)NCC(N)=O)[C@@H](C)CC)[C@@H](C)CC` [GIFSKLAGKKIKNLLISGLKG], the MIC was 4 µM and 3.12 µM in [2]; 3.12 µM (≈ 6.82 µg/mL) in experiment [3]; 2 µM (≈ 4.37 µg/mL) in [4]; > 100 µM in experiment [5]; 16 µM (≈ 35 µg/mL) in [6]; 4 µM and > 2.01 µM in experiment [7]. Moreover, the MIC in [8] was 1.56 µM (≈ 3.41 µg/mL); in experiment [9], 1.56 µM (≈ 3.41 µg/mL); in experiment [10], 8 µM (≈ 17.5 µg/mL); in the experiment on Staphylococcus aureus, 64 µM and 100 µM; in the experiment on Candida albicans, 2.83 µM (≈ 6.18 µg/mL); in [11], 4.03 µM (≈ 8.8 µg/mL). Also, the MIC worked out at 1 µM (≈ 2.18 µg/mL) with Staphylococcus hominis, 4 µM (≈ 8.74 µg/mL) in the experiment with Pseudomonas aeruginosa, 0.125 µM (≈ 0.273 µg/mL) in experiment [12] and 8 µM (≈ 17.5 µg/mL) in [1].

`NC(=O)C[C@H](NC(=O)[C@H](Cc1cnc[nH]1)NC(=O)[C@H](CC(N)=O)NC(=O)[C@@H](N)Cc1ccc(O)cc1)C(=O)N[C@@H](Cc1ccccc1)C(=O)O` [YNHNF]: the MIC in [5] was 300 µM (≈ 208 µg/mL); in experiment [8], 150 µM (≈ 104 µg/mL); in experiment [13] it was ≥ 300 µM; in experiment [14] it was ≥ 300 µM.

As for `CC(C)C[C@H](NC(=O)[C@H](CC(C)C)NC(=O)[C@@H](N)CCC(=O)O)C(=O)N[C@@H](CO)C(=O)N[C@@H](C)C(=O)N[C@H](C(=O)N[C@@H](CC(=O)O)C(=O)O)C(C)C` [ELLSAVD], the MIC in experiment [15] was ≥ 172 µM; in [16], ≥ 172 µM; in experiment [7] it was > 172 µM; against Staphylococcus aureus MR it was ≥ 172 µM; in [17], > 172 µM; in experiment [8] it was 85.8 µM (≈ 64 µg/mL). Moreover, the MIC (in experiment [18]; in [19]; in [20]; against Enterococcus faecalis A4; in [21]; in [22]) was ≥ 172 µM throughout. Moreover, the MIC in [23], in [24] and in experiment [25] was ≥ 172 µM throughout.

Regarding `CC[C@H](C)[C@H](NC(=O)CNC(=O)[C@@H](NC(=O)[C@H](CCCCN)NC(=O)[C@H](CCCCN)NC(=O)[C@H](Cc1ccccc1)NC(=O)[C@H](CC(C)C)NC(=O)[C@H](CCCCN)NC(=O)[C@H](Cc1c[nH]c2ccccc12)NC(=O)[C@@H](N)CCCCN)[C@@H](C)CC)C(=O)NCC(=O)N[C@@H](C)C(=O)N[C@H](C(=O)N[C@@H](CC(C)C)C(=O)N[C@H](C(=O)N[C@H](C(=O)NCC(=O)N[C@@H](CC(C)C)C(=O)N1CCC[C@H]1C(=O)N[C@@H](C)C(=O)N[C@@H](CC(C)C)C(=O)N[C@H](C(=O)N[C@@H](CO)C(=O)O)[C@@H](C)CC)[C@@H](C)O)[C@@H](C)O)C(C)C` [KWKLFKKIGIGAVLTTGLPALIS], the MIC in the experiment with Candida albicans CAN105 amounted to 26.1 µM (≈ 64 µg/mL); in [26] it was 26.1 µM (≈ 64 µg/mL); against Enterococcus faecalis, 26.1 µM (≈ 64 µg/mL); in experiment [27] it was 13 µM (≈ 32 µg/mL); with Escherichia coli UB1005, 5.3 µM (≈ 13 µg/mL); in [28], 26.1 µM (≈ 64 µg/mL). In experiment [1], this compound gave an MIC of 17.5 µM (≈ 43 µg/mL).
